Assay results reported in PMC8170132, “Kinetics of Abacavir-Induced Remodelling of the Major Histocompatibility Complex Class I Peptide Repertoire” (Frontiers in Immunology, 2021).

Assays:
HLA-B*57:01fos [1] = target: T1, HLA-B*57:01fos (Homo sapiens, UniProt P01889, D201E/D98Y/E176V/E187L/E204Q/E69M/E70A/G107R/I90N/K202T/L105A/L119I/N104I/N87E/Q89R/Q94S/R106L/R155S/R180L/R86G/S101N/S121V/S35A/S48A/T118I/V36M/Y140S/Y91M); test: Fluorescence polarisation association rate measurements; format: binding; settings: tapasin-jun or tapasin-jun ERp57 C60A conjugate, fluorescence polarisation, 25°C
T1 construct: Fos leucine zipper (C); made in house
Experimental: (§1) Peptide loaded HLA-B*57:01fos complexes were obtained as described ([50]) by refolding solubilised inclusion bodies of HLA-B*57:01fos heavy chains with human β 2m and UV-labile HLA-B57-conditional peptide ligand.
(§2) Fluorescence polarisation measurements were taken using a SpectraMax i3x Multi-Mode Microplate Reader (Molecular Devices) with rhodamine detection cartridge. All experiments were conducted at 25°C and used PBS supplemented with 0.5 mg/ml bovine-gamma-globulin (Sigma), and a 20 fold molar excess of human β 2m (Fitzgerald) in a volume of 60 µl. Binding of TAMRA-labelled peptides is reported in millipolarisation units (mP) and is obtained from the equation mP = 1,000 × (S – G × P)/(S + G × P), where S and P are background subtracted fluorescence count rates (S = polarisation emission filter is parallel to the excitation filter; P = polarisation emission filter is perpendicular to the excitation filter) and G (grating) is an instrument and assay dependent factor.
Peptide-receptive HLA-B*57:01fos were obtained by exposing HLA-B*57:01fos complexes loaded with UV labile conditional peptide ligand to ~360 nm light for 20 min at 4°C (“UV exposed” hereafter). The binding of fluorescent peptides to UV exposed HLA-B*57:01fos was monitored in the absence or presence of excess (60 µM) abacavir or tapasin-jun or tapasin-jun ERp57 C60A conjugate. […] Most experiments used 0.55 µM HLA-B*57:01fos molecules, but a minority of experiments involved different preparations of HLA-B*57:01fos which required higher concentrations of HLA-B*57:01fos, up to a maximum of 3.18 µM HLA-B*57:01fos, to achieve equivalent polarisation levels.

HLA-B*57:01fos [2] = target: T1, HLA-B*57:01fos; test: Fluorescence polarisation dissociation rate measurements; format: binding; settings: for Effect of abacavir on dissociation of the peptide from HLA-B*57:01fos: 60 µM abacavir with competing peptide; for Half life (hours) of dissociation from HLA-B*57:01fos, Comp+Abacavir / Half life (hours) of dissociation from HLA-B*57:01fos, Comp+Tapasin / Half life (hours) of dissociation from HLA-B*57:01fos, Comp+Tapasin+Abacavir: as Comp; for Half life (hours) of dissociation from HLA-B*57:01fos, Comp+Abacavir: plus 60 µM abacavir; for Half life (hours) of dissociation from HLA-B*57:01fos, Comp+Abacavir / Half life (hours) of dissociation from HLA-B*57:01fos, Comp+Tapasin / Half life (hours) of dissociation from HLA-B*57:01fos, Comp+Tapasin+Abacavir / Half life (hours) of dissociation from HLA-B*57:01fos, Comp: fluorescence polarisation, 25°C, one-phase decay, plateau 50 mP (unconstrained for RVD), 3-4 replicates; for Half life (hours) of dissociation from HLA-B*57:01fos, Comp+Tapasin: plus conjugated tapasin-jun-ERp57 C60A (mostly 0.254 µM); for Half life (hours) of dissociation from HLA-B*57:01fos, Comp+Tapasin+Abacavir: plus tapasin-jun-ERp57 C60A and 60 µM abacavir; for Half life (hours) of dissociation from HLA-B*57:01fos, Comp: PBS + 0.5 mg/ml bovine-gamma-globulin, 20 fold excess human β2m, excess unlabelled competing peptide only; for Tapasin dependent enhancement of dissociation: tapasin-jun-ERp57 C60A with competing peptide
Experimental: as §1, §2
HLA-B*57:01fos molecules were UV exposed and then allowed to bind fluorescent peptides overnight at room temperature. Florescence polarisation measurements were taken after the addition of excess non-labelled competitor peptide (otherwise identical to the labelled peptide) in the absence or presence of 60 µM abacavir or conjugated tapasin-jun-ERp57 C60A proteins. […] Most experiments used 0.55 µM HLA-B*57:01fos molecules, but some experiments involved different preparations of HLA-B*57:01fos which required higher concentrations of HLA-B*57:01fos, up to a maximum of 1.38 µM HLA-B*57:01fos, to achieve equivalent polarisation levels.
Supplementary Table 2. Dissociation rates of TAMRA-labelled peptides from HLA-B*57:01fos molecules. The rates at which the indicated peptides dissociated from HLA-B*57:01fos molecules in the presence of excess unlabelled competing peptide (“Comp”), abacavir and tapasin (data shown in figure 7) was measured by Graphpad Prism v9.1.0. The dissociation rates were calculated by performing non-linear regression, using the one-phase decay method, with plateaus constrained to be equal to 50 mP (apart from being unconstrained for RVD peptide). The number of experimental replicates, and the standard deviation in the measured dissociation rates across the replicates is also presented.

HLA-B*58:01 = HLA-B*58:01 (Homo sapiens, UniProt P01889, A329T/C349S/D201E/D98Y/E176V/E187L/E204Q/E69T/G107R/I218V/I90N/K202T/L105A/L119I/N104I/N87E/Q89R/Q94S/R106L/R155S/R180L/R86G/S101N/S121R/S35A/S48A/T118I/V127L/V306I/V36M/Y140S/Y91M); settings: ref [20]–[22]; cited from earlier work
HLA-B*15:02 = HLA-B*15:02 (Homo sapiens, UniProt P01889, A329T/A93T/A95T/C349S/D201E/D98Y/E187L/E204Q/E69M/E70A/H137Y/K202T/L119I/Q94N/R155S/R180L/S121R/S35A/S48A/T118I/V306I/V36M/Y140S/Y91S); settings: ref [20]–[22]; cited from earlier work
HLA-B*57:01 [3] = target: T2, HLA-B*57:01 (Homo sapiens, UniProt P01889, D201E/D98Y/E176V/E187L/E204Q/E69M/E70A/G107R/I90N/K202T/L105A/L119I/N104I/N87E/Q89R/Q94S/R106L/R155S/R180L/R86G/S101N/S121V/S35A/S48A/T118I/V36M/Y140S/Y91M); test: LC-MRM-MS quantitation of HLA ligands and co-purified abacavir from abacavir treated C1R.B*57:01 cells; format: cell-based; settings: C1R.B*57:01, 35 µM abacavir
C1R.B*57:01 cells = test: Cellular proteome comparison by label free quantitation LC-MS/MS; format: cell-based, human; settings: 35 µM abacavir, 48 h, 2,306 proteins, 5% FDR
[4] = tested on: abacavir responsive CD8+ T cells; test: Intracellular cytokine staining of abacavir responsive CD8+ T cells stimulated with abacavir treated C1R.B*57:01; format: cell-based, human; settings: 35 µM abacavir 0-30 h, three T cell lines
Experimental: Stimulator PBMCs were subsequently added to responder PBMC at a 2:1 responder:stimulator ratio and the final volume of culture made up to 2 ml with RF10. Cells were incubated at 37°C, 5% CO2 and fed with fresh media as required to sustain cell outgrowth. On day 5 of culture, cell media were supplemented with rhIL-2 (Cetus) at 20 U/ml and maintained at this concentration thereafter. […] C1R.B*57:01 were mixed with 1 × 10^5 T cells at a 1:2 ratio in a volume of 200 μl fresh RH10. […] Sigma-Aldrich) was added to a final concentration of 10 μg/ml and incubated a further 4 h. Cells were stained with anti-CD4-PE [clone RPA-T4, Becton Dickinson (BD) Biosciences, USA] and anti-CD8-PerCP-Cy™5.5 (clone SK1, BD Biosciences, 25 min, 4°C), fixed with 1% PFA/PBS (20 min, room temperature), washed in PBS, then permeabilised with 0.3% saponin (Sigma-Aldrich) in PBS containing anti-Interferon-γ (IFNγ)-PE-Cy™7 (clone B27, BD Biosciences) and anti-tumour necrosis factor (TNF)-PE-V450 (clone Mab11, BD Biosciences), and acquired by flow cytometry using an LSR II flow cytometer and BD […]™ software (BD). The percentage of CD8^+ T cells producing IFNγ and TNF was determined via analysis using FlowJo software (BD).

HLA-B*57:01 [5] = target: T2, HLA-B*57:01; settings: 60 µM abacavir
HLA-B*57:01 [6] = target: T2, HLA-B*57:01; settings: 721.220.B*57:01 cells, 60 µM abacavir, 37 and 50°C vs 4°C
HLA-B*57:01 [7] = target: T2, HLA-B*57:01; settings: 721.220.B*57:01 +/- tapasin, 60 µM abacavir 20 hrs, Brefeldin A 0-6 hrs
HLA-B*57:01 [8] = target: T2, HLA-B*57:01; settings: ref [20]–[22]; cited from earlier work

Row | Compound | Effect of tapasin on binding of fluorescent peptide to HLA-B*57:01fos (HLA-B*57:01fos [1]) | Effect of abacavir on dissociation of the peptide from HLA-B*57:01fos (HLA-B*57:01fos [2]) | Half life (hours) of dissociation from HLA-B*57:01fos, Comp+Abacavir (HLA-B*57:01fos [2]) | Half life (hours) of dissociation from HLA-B*57:01fos, Comp+Tapasin (HLA-B*57:01fos [2]) | Half life (hours) of dissociation from HLA-B*57:01fos, Comp+Tapasin+Abacavir (HLA-B*57:01fos [2]) | Half life (hours) of dissociation from HLA-B*57:01fos, Comp (HLA-B*57:01fos [2]) | Tapasin dependent enhancement of dissociation (HLA-B*57:01fos [2]) | other results
1 | KVFK*LQTSL | only slightly enhanced binding | pronounced decrease in the dissociation | 51.83 h | 1.06 h | 2.47 h | 3.27 h | significant | 
2 | Oc1ncnc2[nH]ncc12 [allopurinol] |  |  |  |  |  |  |  | Odds ratio of hypersensitivity reaction with HLA-B*58:01 (HLA-B*58:01): > 500
3 | NC(=O)N1c2ccccc2C=Cc2ccccc21 [carbamazepine] |  |  |  |  |  |  |  | Odds ratio of hypersensitivity reaction with HLA-B*15:02 (HLA-B*15:02): > 500
4 | Nc1nc(NC2CC2)c2ncn([C@H]3C=C[C@@H](CO)C3)c2n1 [abacavir] |  |  |  |  |  |  |  | Time of abacavir treatment after which changes in the immunopeptidome were evident (HLA-B*57:01 [3]): 2 h; Co-purification of HLA-B*57:01-bound abacavir over the time course (HLA-B*57:01 [3]; 0-16 h): increasing amounts; Change in protein expression of the cellular proteome (C1R.B*57:01 cells): no protein showed significant changes in expression; Immunogenicity of abacavir treated antigen presenting cells (IFNγ and/or TNF production by CD8+ T cells) [4]: increase in antigen presenting cell immunogenicity was observed over the first 12 h; Effect on HLA-B*57:01 maturation (Endo-H resistance), tapasin-reconstituted (HLA-B*57:01 [5]; 721.220.B*57:01.tapasin cells): unaffected; Effect on HLA-B*57:01 maturation (Endo-H resistance), tapasin absent (HLA-B*57:01 [5]; 721.220.B*57:01 cells): did not significantly alter this pattern of biogenesis; Effect on thermal stability profile of HLA-B*57:01, tapasin absent (HLA-B*57:01 [6]): no significant impact on the thermal stability profile; Effect on expression level and stability of cell surface HLA-B*57:01 (HLA-B*57:01 [7]): did not significantly alter either the expression level or the stability; Odds ratio of hypersensitivity reaction with HLA-B*57:01 (HLA-B*57:01 [8]): > 500
5 | NTVELRVK*I | did not affect the binding | pronounced decrease in the dissociation | 233.60 h | 1.60 h | 142.70 h | 2.67 h | minimal | 
